Source: US20050048128A1, “Process for producing collagen production enhancers and use thereof” (priority 2001, published 2005)

Legend:
Format in all cases: cell-based
[1] = system: new-born hamster fibroblasts; assay: Collagen production by L-ascorbic acid 2-glucoside or sodium L-ascorbate with or without royal jelly, seven-day culture (Experiment 3); settings: for Collagen production level: no additions = 100, relative value ± SD
Method: Royal jelly was dissolved in D-MEM medium containing 10% (v/v) FCS to give a concentration of 200 μg/ml, and then L-ascorbic acid 2-glucoside was dissolved in the resulting medium to give a concentration of 0.2, 0.5 or 1.0 μg/ml in terms of the weight of L-ascorbic acid. As controls, L-ascorbic acid 2-glucoside was dissolved in D-MEM medium, supplemented with 10% (v/v) FCS but with no royal jelly, to give a concentration of 0.2, 0.5, or 1.0 μg/ml in terms of the weight of L-ascorbic acid. Similarly as in Experiment 1, new-born hamster fibroblasts were cultured for seven days in 6-well plates and further cultured for seven days after the supernatant in each plate was replaced with 5 ml of any of the above media, which dissolved the above-identified L-ascorbic acid 2-glucoside and royal jelly, or those prepared for use as controls. Thereafter, the collagen production level in each well was determined by the same method as in Experiment 1. As a negative control, a medium, supplemented with 200 μg/ml of royal jelly and 1 μg/ml of sodium L-ascorbate in terms of the weight of L-ascorbic acid, was added to the fibroblasts similarly as above, and the cells were cultured for seven days.
The fibroblasts with no addition of L-ascorbic acid 2-glucoside gave a lower collagen production level similarly as that of the control in Experiment 1, independently of the addition of royal jellies. When ascorbic acid 2-glucoside was added to give a concentration of 0.2 μg/ml or more, the collagen production level was enhanced as compared with the system with no L-ascorbic acid 2-glucoside, and the level was more enhanced by the addition of royal jellies.

[2] = system: new-born hamster fibroblasts; assay: TGF-β production by fibroblasts, TGF-β1 Emax ImmunoAssay System (Experiment 4); settings: 24 hours, no additions = 100, relative value ± SD
Method: To study the mechanism of the enhancement of collagen production by royal jellies and/or L-ascorbic acids, the influence of royal jelly and/or L-ascorbic acid 2-glucoside, which had been reported to enhance the production of mRNA for collagen in fibroblasts, on the production of TGF-β was examined by the following method: • (1) Assay for TGF-β: • TGF-β was assayed on TGF-β1 Emax ImmunoAssay System, commercialized by Promega Corporation, Tokyo, Japan. • (2) Assay for TGF-β produced by fibroblasts in the presence of royal jelly and/or L-ascorbic acid 2-glucoside: • TGF-β was assayed by inoculating 1×10^4 cells/well of new-born hamster fibroblasts, prepared by the method similarly as in Experiment 1, to 96-well microplates, commercialized by Nippon Becton. […]

[3] = system: new-born hamster fibroblasts; assay: Collagen production by new-born hamster fibroblasts, [2,3-3H] proline taken into collagen (Experiment 1); settings: for Relative amount of collagen production: no addition = 100, relative value ± SD
Method: According to conventional manner, the dorsum skin of a new-born hamster was cut and detached, and fibroblasts were isolated from the detached skin. The preparation method is outlined below: To detach the epidermis from the dermis, the debris was placed and allowed to stand at 4° C. overnight in Eagle's minimum essential medium, commercialized by Nippon Suisan Kaisha, Ltd., Tokyo, Japan, containing 0.03 mM Ca^2+, in which 500 units/ml of a dispase commercialized by Godo Shusei Co., Ltd., Tokyo, Japan, was dissolved. The detached dermis was kept at 37° C. for one hour in Dulbecco minimum essential medium (abbreviated as “D-MEM”, hereinafter), commercialized by Nippon Suisan Kaisha, Ltd., Tokyo, Japan, in which 0.25% (v/v) of a collagenase commercialized by Amano Enzyme, Aichi, Japan, was dissolved. Thereafter, the resulting cell debris of the dermis were pipetted into a cell suspension with singly dispersed cells of new-born hamster fibroblasts, followed by collecting the cells by centrifugation. The cells were suspended in phosphate-buffered saline and allowed to stand for 30 min, followed by centrifugally collecting the resulting supernatant with fibroblasts and re-suspending the cells in D-MEM supplemented with 10% (v/v) of a fetal bovine serum (abbreviated as “FCS”, hereinafter) commercialized by GIBCO Bethesda Research Laboratories, Bethesda, Md., USA, into a cell suspension for use in the following assay for collagen production level.
The following cells were cultured in an incubator with 5% (v/v) CO2 at 37° C. Three milliliter aliquots of the cell suspension of new-born hamster fibroblasts, prepared in the above 3, were seeded in 6-well plates to give a cell density of 4×10^5 cells/well and cultured for seven days. To D-MEM supplemented with 10% (v/v) FCS was added and dissolved therein L-ascorbic acid to give a concentration of 0.0, 0.1, 0.2, 0.5, 1.0, 2.0, 5.0, 10.0, 20.0, 50.0, 100.0, or 200.0 μg/ml. Similarly as above, either a heated royal jelly or an unheated royal jelly was added to and dissolved in D-MEM supplemented with 10% (v/v) FCS to give a concentration of 0.0, 0.1, 0.2, 0.5, 1.0, 2.0, 5.0, 10.0, 20.0, 50.0, 100.0, 200.0, or 500.0 μg/ml. Five milliliter aliquot of any one of the above media supplemented with L-ascorbic acid or the heated or unheated royal jelly was added to each well of the plates, which had been removed off the culture supenatants of fibroblast cultures, followed by culturing the cells for three days. Thereafter, the supernatant in each well was replaced with five milliliters of a fresh medium supplemented with the same concentration of L-ascorbic acid or the heated or unheated royal jelly as mentioned-above, and the cells were sequentially cultured for three days, replaced with one milliliter of a fresh medium having the same concentration of L-ascorbic acid or the heated or unheated royal jelly as mentioned-above, cultured for three hours, admixed with [2,3-^3H] proline (40 Ci/mmol) commercialized by Amersham Corp., Div. Amersham International, Ill., USA, which had been dissolved in D-MEM to give a concentration of 3 μCi/well, and further cultured overnight. All the culture media, including those supplemented with L-ascorbic acid or the heated or unheated royal jelly, used in this experiment, were filtered with a 0.22 μm filter before use.
In the above 4, after the fibroblasts of new-born hamster were cultured in the presence of [2,3-^3H] proline, collagen was extracted from the cells in a usual manner and quantified for [2,3-^3H] proline taken thereinto. The quantitation was carried out by the method disclosed by Seong-Jin Kim et al. in Dermatologic Surgery, Vol. 24, pp. 1,054-1,058 (1998). […]

[4] = system: new-born hamster fibroblasts; assay: Influence of royal jelly on the collagen production by L-ascorbic acid, significant difference test (Experiment 2)
Method: Using the assay system for the collagen production level used in Experiment 1, it was studied the influence of royal jellies on the collagen production by L-ascorbic acids: New-born hamster fibroblasts, prepared similarly as the method in Experiment 1, were seeded in 6-well plates and cultured for seven days. […] In this experiment, three wells were used for each concentration. The results were evaluated whether there existed a significant difference between the count in a control system and those in the test systems with different concentrations of heated or unheated royal jelly, based on the count for the control system with no royal jelly that was detected by a liquid scintillation counter, as a control.

[5] = system: new-born hamster fibroblasts; assay: Collagen production by L-ascorbic acid 2-glucoside or sodium L-ascorbate with or without royal jelly, seven-day culture (Experiment 3); settings: 1 μg/ml L-ascorbic acid, three days, medium replaced with fresh one, three further days; data omitted
[6] = L-ascorbic acid 2-glucoside 0.2 μg/ml (as L-ascorbic acid) with royal jelly 200 μg/ml
[7] = L-ascorbic acid 2-glucoside 0.2 μg/ml (as L-ascorbic acid), no royal jelly

## O=C1O[C@H]([C@@H](O)CO)C(O)=C1O[C@H]1O[C@H](CO)[C@@H](O)[C@H](O)[C@H]1O [L-ascorbic acid 2-glucoside]
[1]; [6]
  Collagen production level: 298 ± 30
[1]; [7]
  Collagen production level: 219 ± 31
[1]; L-ascorbic acid 2-glucoside 0.5 μg/ml (as L-ascorbic acid) with royal jelly 200 μg/ml
  Collagen production level: 1440 ± 70
[1]; L-ascorbic acid 2-glucoside 0.5 μg/ml (as L-ascorbic acid), no royal jelly
  Collagen production level: 527 ± 17
[1]; L-ascorbic acid 2-glucoside 1.0 μg/ml (as L-ascorbic acid) with royal jelly 200 μg/ml
  Collagen production level: 3168 ± 318
[1]; L-ascorbic acid 2-glucoside 1.0 μg/ml (as L-ascorbic acid), no royal jelly
  Collagen production level: 2250 ± 436
[1]; compared with the system with no L-ascorbic acid 2-glucoside
  Concentration of L-ascorbic acid 2-glucoside at which the collagen production level was enhanced: ≥ 0.2 µg/mL
[1]; culture medium, seven days, compared with L-ascorbic acid
  Stability dissolved in media: advantageously more stable as compared with L-ascorbic acid
[2]; [6]
  Production level of TGF-β: 132 ± 12
[2]; [7]
  Production level of TGF-β: 111 ± 5

## O=C1O[C@H]([C@@H](O)CO)C([O-])=C1O.[Na+] [L-ascorbic acid, Sodium L-ascorbate]
[3]; L-ascorbic acid 0.1 μg/ml
  Relative amount of collagen production: 95 ± 13
[3]; L-ascorbic acid 0.2 μg/ml
  Relative amount of collagen production: 118 ± 26
[3]; L-ascorbic acid 0.5 μg/ml
  Relative amount of collagen production: 210 ± 33
[3]; L-ascorbic acid 1.0 μg/ml
  Relative amount of collagen production: 482 ± 89
[3]; L-ascorbic acid 2.0 μg/ml
  Relative amount of collagen production: 1497 ± 155
[3]; L-ascorbic acid 5.0 μg/ml
  Relative amount of collagen production: 1755 ± 151
[3]; L-ascorbic acid 10.0 μg/ml
  Relative amount of collagen production: 2089 ± 160
[3]; L-ascorbic acid 20.0 μg/ml
  Relative amount of collagen production: 2456 ± 186
[3]; L-ascorbic acid 50.0 μg/ml
  Relative amount of collagen production: 2841 ± 341
[3]; L-ascorbic acid 100.0 μg/ml
  Relative amount of collagen production: 2956 ± 500
[3]; L-ascorbic acid 200.0 μg/ml
  Relative amount of collagen production: 2863 ± 456
[3]; sole use
  Minimum effective amount of L-ascorbic acid for producing collagen: 0.5 µg/mL
[3]; sole use, no significant increase above
  Concentration at which the level of collagen production reached a plateau level: ≥ 50 µg/mL
[4]
  Lowest concentration of L-ascorbic acid exerting the collagen-production action in combination with royal jelly: 0.2 µg/mL

## Sodium L-ascorbate [L-ascorbic acid]
[1]; 1 μg/ml sodium L-ascorbate (as L-ascorbic acid) with 200 μg/ml royal jelly, seven days, medium not replaced
  Enhancement of collagen production, negative control: no enhancement of collagen production
[5]
  Collagen production with medium replacement: enhanced level of collagen production
